Results on ten molecules are retold here after PubChem BioAssay (NCI).

Among the test systems are MDA-MB-231 breast; A498 renal; HCC-2998 colon; LOX IMVI melanoma; MDA-MB-435; K-562 leukemia; UACC-62 melanoma; IGROV1 ovarian; A549 NSCLC; NCI-H226 lung; SK-OV-3 ovarian; SNB-19 CNS; OVCAR-5 ovarian.
Test in all cases: NCI tumour cell line growth inhibition, 48 h

Molecules are shown by their SMILES.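 Test compounds were applied to cells in 96-well plates for 48 hours at 5 doses. TGI is the concentration that stops growth completely.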 Where a SMILES comes first, the peptide text is derived from it. [ ]: non-standard residue; d: D form. The star is where a group is joined. X28 = COC1=CC(=O)N(C(=O)[C@@H](O*)C(C)C)[C@H]1Cc1ccccc1; NMeL = CN[C@@H](CC(C)C)C(=O)O; Cbz = O=C(OCc1ccccc1)* Some results are limits rather than exact numbers.

Consider `COC1=CC(=O)N(C(=O)[C@@H](OC(=O)[C@@H]2CCCN2C(=O)[C@@H]2CCCN2C(=O)[C@H](CC(C)C)N(C)C(=O)[C@@H](NC(=O)[C@@H](NC(=O)OCc2ccccc2)C(C)C)C(C)C)C(C)C)[C@H]1Cc1ccccc1` (Cbz-VV[NMeL]PP-X28), for which the TGI in the experiment on MDA-MB-231 breast was 61.9 µM; in the experiment on A498 renal, 56.1 µM; in the experiment on HCC-2998 colon, greater than 100 µM; with LOX IMVI melanoma it was greater than 100 µM; in the experiment with MDA-MB-435, greater than 100 µM; in the experiment with K-562 leukemia, greater than 100 µM. The TGI in the experiment with UACC-62 melanoma, in the experiment with IGROV1 ovarian, with A549 NSCLC, with NCI-H226 lung, in the experiment with SK-OV-3 ovarian and in the experiment on SNB-19 CNS was greater than 100 µM in each case. The TGI in the experiment with OVCAR-5 ovarian is greater than 100 µM.

With `CCN(CC)CCNc1ccc2nnn3c4ccc(OC(C)=O)cc4c(=O)c1c23`, the TGI in the experiment with MDA-MB-231 breast was 16 µM; with A498 renal, 21 µM; in the experiment with HCC-2998 colon it was 17.4 µM; with LOX IMVI melanoma, 6.83 µM; in the experiment on MDA-MB-435 it was 18 µM; in the experiment on K-562 leukemia, greater than 19.8 µM. For the same molecule, the TGI is 25.3 µM in the experiment with UACC-62 melanoma; 6.38 µM with IGROV1 ovarian; greater than 40.6 µM in the experiment with A549 NSCLC; 7.62 µM in the experiment on NCI-H226 lung; 21 µM in the experiment on SK-OV-3 ovarian; greater than 43.2 µM in the experiment with SNB-19 CNS. This molecule showed a TGI with OVCAR-5 ovarian of 24 µM.

Regarding `COC(=O)C1(Cc2ccc3c(c2)CCC3)Cc2cc3c(cc2C1=O)CCC3` (stereo not given), the TGI in the experiment with MDA-MB-231 breast is greater than 46.4 µM; in the experiment with A498 renal, greater than 31.6 µM; in the experiment with HCC-2998 colon, 38.1 µM; in the experiment with LOX IMVI melanoma it was greater than 46.4 µM; in the experiment with MDA-MB-435, 43 µM; with K-562 leukemia it was greater than 46.4 µM. For the same molecule, the TGI in the experiment with UACC-62 melanoma, in the experiment with IGROV1 ovarian, in the experiment on A549 NSCLC, in the experiment on NCI-H226 lung, with SK-OV-3 ovarian and with SNB-19 CNS was greater than 46.4 µM throughout. Moreover, the TGI in the experiment on OVCAR-5 ovarian was greater than 46.4 µM.

As for `O=C(O)C1(CC(CCCN2CCCCC2)c2ccccc2)CCCC1` (stereo not given), the TGI with MDA-MB-231 breast, in the experiment on A498 renal, in the experiment with HCC-2998 colon, in the experiment with LOX IMVI melanoma, with MDA-MB-435 and with K-562 leukemia was greater than 100 µM in each case. Further, the TGI with UACC-62 melanoma, in the experiment on IGROV1 ovarian, with A549 NSCLC, in the experiment on NCI-H226 lung, in the experiment with SK-OV-3 ovarian and with SNB-19 CNS was greater than 100 µM each time. This molecule also returned a TGI with OVCAR-5 ovarian greater than 100 µM.

For the molecule `CCN(CC)CCNC(=O)c1cc2cc(NC(=O)c3cc4cc(NC(=O)c5cc6cc([N+](=O)[O-])ccc6[nH]5)ccc4[nH]3)ccc2[nH]1`, the TGI in the experiment with MDA-MB-231 breast, in the experiment on A498 renal, in the experiment with HCC-2998 colon, in the experiment on LOX IMVI melanoma, in the experiment on MDA-MB-435 and in the experiment with K-562 leukemia was greater than 100 µM in each case. The TGI with UACC-62 melanoma, in the experiment with IGROV1 ovarian, in the experiment on A549 NSCLC, with NCI-H226 lung, in the experiment on SK-OV-3 ovarian and in the experiment on SNB-19 CNS was greater than 100 µM in each case. The TGI in the experiment with OVCAR-5 ovarian is greater than 100 µM.

Take `CN1CCN(CCCCNc2cc3c4ccccc4c(NCCCCN4CCN(C)CC4)cc3c3ccccc23)CC1`: the TGI came to 2.89 µM in the experiment with MDA-MB-231 breast; 28.5 µM in the experiment on A498 renal; 3.29 µM in the experiment with HCC-2998 colon; 2.42 µM in the experiment on LOX IMVI melanoma; 0.359 µM with MDA-MB-435; 6.8 µM in the experiment on K-562 leukemia. Also, the TGI in the experiment with UACC-62 melanoma is 6.05 µM; in the experiment with IGROV1 ovarian, 5.52 µM; in the experiment with A549 NSCLC, 3.21 µM; in the experiment on NCI-H226 lung, 45.4 µM; in the experiment on SK-OV-3 ovarian, 29.4 µM; in the experiment on SNB-19 CNS it was 12.5 µM. Further, in the experiment on OVCAR-5 ovarian, the TGI was 12.5 µM.

For `CCOC(=O)c1ccc2c(=O)n3c(C(=O)OCC)ccc3c(=O)n12`, the TGI with MDA-MB-231 breast, with A498 renal, with HCC-2998 colon, in the experiment on LOX IMVI melanoma, in the experiment on MDA-MB-435 and in the experiment with K-562 leukemia was greater than 100 µM in each case. The TGI in the experiment on UACC-62 melanoma, with IGROV1 ovarian, with A549 NSCLC, with NCI-H226 lung, in the experiment with SK-OV-3 ovarian and in the experiment with SNB-19 CNS was greater than 100 µM throughout. The molecule also came in with a TGI with OVCAR-5 ovarian greater than 100 µM.

For `CCOC(=S)SC/C(=N\OC(C)(C)OC)c1ccccc1`, the TGI in the experiment with MDA-MB-231 breast is greater than 100 µM; with A498 renal, greater than 100 µM; in the experiment with HCC-2998 colon it was 61.8 µM; in the experiment with LOX IMVI melanoma it was 31.2 µM; with MDA-MB-435, 65.7 µM; in the experiment on K-562 leukemia, 56 µM. The TGI in the experiment with UACC-62 melanoma, with IGROV1 ovarian, in the experiment on A549 NSCLC, with NCI-H226 lung, in the experiment on SK-OV-3 ovarian and in the experiment on SNB-19 CNS was greater than 100 µM each time. The TGI with OVCAR-5 ovarian is greater than 100 µM.

On to `Cc1ccc(N2C(=O)C(O)=C(C(=O)C(C)(C)C)C2c2ccc([N+](=O)[O-])cc2)cc1` (stereo not given), for which the TGI was found to be 45.7 µM in the experiment on MDA-MB-231 breast; 68.9 µM with A498 renal; 45.4 µM in the experiment with HCC-2998 colon; 36.9 µM in the experiment with LOX IMVI melanoma; 44.7 µM with MDA-MB-435; 85.2 µM with K-562 leukemia. In addition, the TGI is 37.2 µM in the experiment on UACC-62 melanoma; 43.7 µM in the experiment on IGROV1 ovarian; 82.5 µM in the experiment with A549 NSCLC; 43.3 µM with NCI-H226 lung; 57.2 µM with SK-OV-3 ovarian; greater than 100 µM in the experiment on SNB-19 CNS. Besides, the TGI in the experiment with OVCAR-5 ovarian is greater than 100 µM.

`Nc1nc(SCc2ccccc2[N+](=O)[O-])c2[nH]cnc2n1`: the TGI in the experiment with MDA-MB-231 breast was greater than 100 µM; in the experiment on A498 renal it was 48.3 µM; with HCC-2998 colon, 97.4 µM; in the experiment on LOX IMVI melanoma, greater than 100 µM; in the experiment with MDA-MB-435, greater than 100 µM; in the experiment on K-562 leukemia, greater than 100 µM. Further, the TGI in the experiment on UACC-62 melanoma is greater than 100 µM; in the experiment with IGROV1 ovarian, greater than 68.4 µM; in the experiment with A549 NSCLC, greater than 100 µM; with NCI-H226 lung it was 97.5 µM; with SK-OV-3 ovarian it was greater than 100 µM; in the experiment on SNB-19 CNS, greater than 100 µM. Also, the TGI in the experiment on OVCAR-5 ovarian was greater than 100 µM.
